pKi: −log10 of the molar value. Where a SMILES comes first, the peptide text is derived from it. [ ]: non-standard residue; d: D form.

The target in assay [1] is T1, PSD-95-PDZ2 (Homo sapiens, UniProt P78352).
T1 construct: 7xHis (N); made in house; host or cells: Escherichia coli B21 pLys (for the mutants, 'as previously described')
Briefly: Fluorescence polarization (FP) competition assay against cyclic nNOS TAMRA probe. The format is binding. The note with it: for pKi: FP competition, cyclic nNOS TAMRA probe, mean of triplicates, N.B. = not binding, read-out: Ki; for Relative Ki (Ki mut/Ki WT): FP inhibition constant normalized to WT value. Background: Fluorescence polarisation rises when a labelled molecule tumbles more slowly, as on binding a larger partner.
Protocol: Fluorescence polarization (FP). FP assays were performed in a 384-well plate format. Fluorescence polarization was measured using a Safire 2 plate reader. The instrument Z-factor was optimized for each assay. The G-factor was calibrated to an initial milli polarization value of 20. The wavelength for the cyclic nNOS β-hairpin TAMRA probe was: ex: 530 nm and em: 580 nm. Every measurement was performed in NaPI 50 mM, 50 mM NaCl and 1% BSA at pH 7.2, 25° C. […] The curves were done in triplicates. Then, the polarization was fitted into a one-site binding model using Prism software 8.0 (GraphPad), from which the Kd can be measured. […] The mili polarization (mP) values were plotted as a function of peptide concentration and fitted to a sigmoidal dose-response curve using Prism software 8.0 (GraphPad). The Ki values were calculated according to Nikolovska-Coleska Z. et al.^40-41

In assay [2] the target is T2, PSD-95-PDZ2 (Homo sapiens, UniProt P78352, V178C).
T2 construct: screened with the TAMRA labelled PSD-95-PDZ2-V178C domain; 7xHis (N); made in house
Briefly: SPOT peptide array screening with TAMRA labelled PSD-95-PDZ2. The class given is binding. Conditions: SPOT array, TAMRA labelled PSD-95-PDZ2-V178C, normalized to WT. The protocol: SPOT peptide array synthesis. To generate the cyclic nNOSβ-hairpin arrays, we used the Intavis MultiPep spotter (Intavis Bioanalytical instruments). The membranes employed in this assay were SynthoPlan APEG CE (standard amino-modified acid stable sellulose membrane with a PEG-spacer), 10×15 cm with a loading of 400 nmol cm^−2. Solutions of 0.3 M Fmoc-AA-OH and 0.3 M Oxyma Pure were prepared in N-methyl-2-pyrrolidone (NMP). The activator solution consisted of 0.3 M DIC and 0.3 M of 2,4,6-trimethylpyridine (Collidine) in NMP. The capping solution consisted of a solution of 1 M acetic anhydride and 0.05 M of 4-dimethylaminopyridine (DMAP) in NMP. The deprotection solution consisted of 20% piperidine in NMP. AA couplings were performed 1 h,4 times. Deprotection of the Fmoc groups was performed 15min,2 times. Membrane washing between couplings or deprotections was performed with NMP and ethanol. Elongation of peptides in cellulose membrane was started by coupling first the Fmoc-PEG(9)-OH (Iris Biotech) and the subsequent mixture of Fmoc-Gly-OH (25%) and Boc-Gly-OH (75%) to lower the total loading of the membrane. Afterwards, the resin was capped with the capping solution and extensively washed and soaked in bromophenol blue (BPB) as a quality control to reveal the SPOTS with a functional amino group. Then, we coupled the quasi-orthogonal group Fmoc-Glu-PP, and carried out the rest of the synthesis until peptide completion. The cellulose bound linear peptides were finally treated with a solution of 95% DCM, 3% TIPS and 2% TFA 3 times, 20 min. to remove the quasi-orthogonal group. Afterwards, the membrane was washed 5 times with DCM and neutralized with 5% DIPEA in DCM. The membrane was then washed 5 more times with DCM, 5 times with NMP and cyclized with 0.3M PyAOP and 0.3M of DIPEA in DMF for 3 h or overnight. Finally, the membrane was dried with DCM and the side-chain protecting groups were cleaved with the standard deprotection cocktail (95% TFA, 2.5% H2O and 2.5% TIPS) or with reagent K [TFA 82.5%, phenol 5%, H2O 5%, thioanisole 5% and 1,2-ethanedithiol (EDT) 2.5%] for 3 h.
SPOT membrane screening. Membranes were incubated with PBS pH 7.2+0.5% bovine serum albumin (BSA) for 1 h. After the incubation period, the membrane was dried and scanned with an Amershan Typhoon scanner, at 400V, Cy3 wavelength (532 nm). A TIF file of the screening and a file with the blank values were generated using the Image Quant software. Afterwards, a solution of 50 nM of TAMRA labelled PSD-95-PDZ2 domain was prepared in PBS pH 7.2+0.5% BSA and was added to the membrane. The membrane was left incubating in a Polymax 1040 rocking table for 1 h protected from the light. Passed the incubation time, the excess of labelled protein was removed by washing the membrane 3 times with PBS+0.5% BSA. Finally, the membrane fluorescence values were measured with the Amershan Typhoon scanner at 400V, Cy3 wavelength (532 nm). Using the Image Quant software, the TIF image of the screening and a file with the fluorescence values of the peptides with the TAMRA labelled PSD-95-PDZ2 were generated. The blank was then subtracted from the fluorescence values of the peptides screened against the TAMRA labelled PSD-95-PDZ2.
A deep mutational scan was performed on the WT scaffold, exchanging each AA to the remaining 19 L-AAs. Each array contained three copies of the individual peptides as technical replicates. Additionally, three controls were included in the design: the cyclic nNOS β-hairpin WT control (positive control), a linear nNOS peptide (cyclization control) and a cyclic nNOS β-hairpin with a F111V substitution (negative control previously tested in FP competition assays). For array screening, a mutation in PSD-95-PDZ2 residue V178 (PSD-95-PDZ2-V178C) was introduced, which was subsequently labelled with TAMRA maleimide. […]

Turning to `CC[C@H](C)[C@@H]1NC(=O)[C@H]([C@@H](C)O)NC(=O)[C@H](CCCCN)NC(=O)[C@@H]2CCCN2C(=O)[C@H]([C@@H](C)O)NC(=O)CNC(=O)[C@H](CC(=O)O)NC(=O)CNC(=O)[C@H]([C@@H](C)O)NC(=O)[C@H](Cc2ccccc2)NC(=O)[C@H](CC(=O)O)NC(=O)[C@H]([C@@H](C)O)NC(=O)[C@H](CCC(=O)O)NC(=O)[C@H](CC(C)C)NC(=O)[C@H](Cc2c[nH]cn2)NC(=O)[C@H]([C@@H](C)O)NC(=O)[C@H](CCC(N)=O)NC(=O)CNC(=O)[C@H]2CCCN2C(=O)[C@H](CCC(N)=O)NC(=O)[C@H]([C@@H](C)O)NC(=O)[C@H](C(C)C)NC(=O)[C@H](CCCNC(=N)N)NC1=O` [compound 54] (cyclo(THLETDFTGDGTPKTIRVTQ[dP]GQ)), on PSD-95-PDZ2 [1], the pKi (usually −log10 of the Ki, conventionally taken in molar units) was 5.85 and the “Relative Ki (Ki mut/Ki WT)” value came to 0.95. For the same compound, the “Normalized SPOT fluorescence (Mut/WT)” value at PSD-95-PDZ2 [2] is on record as 0.16.
Consider `CC[C@H](C)[C@@H]1NC(=O)[C@H]([C@@H](C)O)NC(=O)[C@H](CCCCN)NC(=O)[C@@H]2CCCN2C(=O)[C@H]([C@@H](C)O)NC(=O)CNC(=O)[C@H](CC(=O)O)NC(=O)CNC(=O)[C@H]([C@@H](C)O)NC(=O)[C@H](Cc2ccccc2)NC(=O)[C@H]([C@@H](C)O)NC(=O)[C@H]([C@@H](C)O)NC(=O)[C@H](CCC(=O)O)NC(=O)[C@H](CC(C)C)NC(=O)[C@H](Cc2c[nH]cn2)NC(=O)[C@H](C)NC(=O)[C@H](CCC(N)=O)NC(=O)CNC(=O)[C@H]2CCCN2C(=O)[C@H](CCC(N)=O)NC(=O)[C@H]([C@@H](C)O)NC(=O)[C@H](C(C)C)NC(=O)[C@H](CCCNC(=N)N)NC1=O` [compound 55] (cyclo(AHLETTFTGDGTPKTIRVTQ[dP]GQ)), for which, on PSD-95-PDZ2 [1], the pKi was 5.82 and the “Relative Ki (Ki mut/Ki WT)” value came to 1.00. In addition, the “Normalized SPOT fluorescence (Mut/WT)” value on PSD-95-PDZ2 [2] stood at 0.97.
`CC[C@H](C)[C@@H]1NC(=O)[C@H]([C@@H](C)O)NC(=O)[C@H](CCCCN)NC(=O)[C@@H]2CCCN2C(=O)[C@H]([C@@H](C)O)NC(=O)CNC(=O)[C@H](CC(=O)O)NC(=O)CNC(=O)[C@H]([C@@H](C)O)NC(=O)[C@H](Cc2ccccc2)NC(=O)[C@H]([C@@H](C)O)NC(=O)[C@H]([C@@H](C)O)NC(=O)[C@H](CCC(=O)O)NC(=O)[C@H](CC(C)C)NC(=O)[C@H](C)NC(=O)[C@H]([C@@H](C)O)NC(=O)[C@H](CCC(N)=O)NC(=O)CNC(=O)[C@H]2CCCN2C(=O)[C@H](CCC(N)=O)NC(=O)[C@H]([C@@H](C)O)NC(=O)[C@H](C(C)C)NC(=O)[C@H](CCCNC(=N)N)NC1=O` [compound 56] (cyclo(TALETTFTGDGTPKTIRVTQ[dP]GQ)): at PSD-95-PDZ2 [1], the “Relative Ki (Ki mut/Ki WT)” value was 1.37. Further, the “Normalized SPOT fluorescence (Mut/WT)” value on PSD-95-PDZ2 [2] is recorded as 0.38.
The corresponding values for `CC[C@H](C)[C@@H]1NC(=O)[C@H]([C@@H](C)O)NC(=O)[C@H](CCCCN)NC(=O)[C@@H]2CCCN2C(=O)[C@H]([C@@H](C)O)NC(=O)CNC(=O)[C@H](CC(=O)O)NC(=O)CNC(=O)[C@H]([C@@H](C)O)NC(=O)[C@H](Cc2ccccc2)NC(=O)[C@H]([C@@H](C)O)NC(=O)[C@H]([C@@H](C)O)NC(=O)[C@H](C)NC(=O)[C@H](CC(C)C)NC(=O)[C@H](Cc2c[nH]cn2)NC(=O)[C@H]([C@@H](C)O)NC(=O)[C@H](CCC(N)=O)NC(=O)CNC(=O)[C@H]2CCCN2C(=O)[C@H](CCC(N)=O)NC(=O)[C@H]([C@@H](C)O)NC(=O)[C@H](C(C)C)NC(=O)[C@H](CCCNC(=N)N)NC1=O` [compound 58] (cyclo(THLATTFTGDGTPKTIRVTQ[dP]GQ)) are 14.11 and 0.15.
